Measurements: patent publication US7312213B2, “Substituted benzo[e][1,4]oxazino[3,2-g]isoindole compounds” (Les Laboratories Servier, priority 2002, dated 2007)
Counter-ions that a name gives are not always drawn.

Experiments:
[1] = tested on: KB-3-1 epidermoid carcinoma; test: In vitro cytotoxicity, human solid tumour cell line KB-3-1; assay type: cell-based; conditions: 96 h, incubation 4 days
Description: (§1) L1210 murine leukaemia was used in vitro. The cells are cultured in RPMI 1640 complete culture medium containing 10% foetal calf serum, 2 mM glutamine, 50 units/ml of penicillin, 50 μg/ml of streptomycin and 10 mM Hepes, pH=7.4. The cells are distributed on microplates and are exposed to the cytotoxic compounds for 4 doubling periods, or 48 hours. The number of viable cells is then quantified by a colorimetric assay, the Microculture Tetrazolium Assay (J. Carmichael et al., Cancer Res.; 47, 939-942 (1987)). The results are expressed as the IC50, the concentration of cytotoxic agent that inhibits the proliferation of the treated cells by 50%.
(§2) The compounds of the invention were also tested on human cell lines originating from solid tumours, in accordance with the same test protocol as that described for L1210 murine leukaemia but with incubation periods of 4 days instead of 2 days.

DU145 prostate carcinoma = test: In vitro cytotoxicity, human solid tumour cell line DU145; assay type: cell-based; conditions: DU-145, 96 h, incubation 4 days
Description: as §1, §2

L1210 murine leukaemia = test: In vitro cytotoxicity, L1210 murine leukaemia (Microculture Tetrazolium Assay); assay type: cell-based; conditions: Mus musculus; L1210, 48 hours exposure (4 doubling periods); read-out: IC50, concentration of cytotoxic agent that inhibits the proliferation of the treated cells by 50%
Description: as §1

[2] = tested on: A549 non-small-cell lung carcinoma; test: In vitro cytotoxicity, human solid tumour cell line A549; assay type: cell-based; conditions: 96 h, incubation 4 days
Description: as §1, §2

HT-29 colon carcinoma = test: In vitro cytotoxicity, human solid tumour cell line HT-29; assay type: cell-based; conditions: 96 h, incubation 4 days
Description: as §1, §2

| Structure (SMILES) | melting point | further results |
| --- | --- | --- |
| CN(C)CCn1c(=O)c2c3cc(O)ccc3c3c(oc4ccccc4n3C(=O)OC(C)(C)C)c2c1=O [Example 1, 8-(tert-Butoxycarbonyl)-2-[2-(dimethylamino)ethyl]-5-hydroxy-2,3-dihydrobenzo[a]pyrrolo[3,4-c]phenoxazine-1,3-dione] | 190 °C (dec.) |  |
| CN(C)CCn1c(=O)c2c3cc(O)ccc3c3[nH]c4ccccc4oc3c2c1=O [Example 2, 2-[2-(Dimethylamino)ethyl]-5-hydroxybenzo[a]pyrrolo[3,4-c]phenoxazine-1,3-dione hydrochloride] |  | IC50 [1]: 260 nM; IC50 (DU145 prostate carcinoma): 270 nM; IC50 (L1210 murine leukaemia): 250 nM; IC50 [2]: 160 nM; IC50 (HT-29 colon carcinoma): 600 nM |
| CN(C)CCn1c(=O)c2c3cc(OCCO)ccc3c3c(oc4ccccc4n3C(=O)OC(C)(C)C)c2c1=O [Example 3, 8-(tert-Butoxycarbonyl)-2-[2-(dimethylamino)ethyl]-5-(2-hydroxy-ethoxy)-2,3-dihydrobenzo[a]pyrrolo [3,4-c]phenoxazine-1,3-dione] | > 80 °C (dec.) |  |
| CN(C)CCn1c(=O)c2c3cc(OCCO)ccc3c3[nH]c4ccccc4oc3c2c1=O [Example 6, 2-[2-(Dimethylamino)ethyl]-5-(2-hydroxyethoxy)benzo-[a]pyrrolo[3,4-c]phenoxazine-1,3-dione] | 216 °C |  |
| CN(C)CCn1c(=O)c2c3cc(OCCO)ccc3c3c(oc4ccccc4n3C=O)c2c1=O [Example 7, 8-(Formyl)-2-[2-(dimethylamino)ethyl]-5-(2-hydroxyethoxy)-benzo[a]pyrrolo[3,4-c]phenoxazine-1,3-dione] | 202 °C |  |
| Cn1c(=O)c2c3cc(OCCO)ccc3c3c(oc4cccnc4n3C(=O)Oc3ccccc3)c2c1=O [Example 8, 8-(Phenoxycarbonyl)-5-(2-hydroxyethoxy)-2-methyl-2,3-dihydrobenzo[e]pyrido[2′,3′:5,6][1,4]oxazino[3,2-g]isoindole-1,3-dione] | 250 °C |  |
